{
  "source": "patent US20230355646A1",
  "about": "“AUTOPHAGY ACTIVATOR” (Resonac Corporation, priority 2020, published 2023)",
  "tested_on": "LC3 gene",
  "test": "LC3 gene expression promoting effect in human neuroblastoma SH-SY5Y in the presence of amyloid β",
  "assay_type": "cell-based",
  "description": "In the presence of an autophagy activator, the expression levels of the LC3 gene, ATG5 gene, and ATG7 gene in human neuroblastoma (SH-SY5Y; obtained from ATCC) were measured by the following test method, and the effect of promoting the expression of the LC3 gene, ATG5 gene, and ATG7 gene by an autophagy activator was evaluated.\nIn the following examples and comparative examples, tests were performed by adding amyloid β, which is known to cause a decrease in autophagy in nerve cells, to each medium.\nSH-SY5Y cells were prepared at a seeding density of 10000 cells/cm^2 and cultured for 24 hours in D-MEM medium/Ham's F-12 medium (manufactured by Sigma-Aldrich) to which 10% fetal bovine serum (manufactured by MP Biomedicals) was added. Next, in Example 15, the methyl hesperidin DMSO solution was added to the medium such that the final concentration of methyl hesperidin was 10^−3% (V/V) and the final concentration of DMSO was 0.1% (V/V). […]\nThen, using Nucleospin (registered trademark) RNA kit (manufactured by Takara Bio Inc.), RNA was extracted from SH-SY5Y cells in each example, and cDNA was synthesized from the obtained RNA. Next, using this cDNA as a template, by quantitative real-time PCR, the expression level of each gene was quantified using primers (manufactured by Takara Bio Inc.) specific to the LC3 gene, ATG5 gene, and ATG7 gene, respectively. […]",
  "data": [
    {"smiles": "COc1ccc([C@@H]2CC(=O)c3c(O)cc(O[C@@H]4O[C@H](CO[C@@H]5O[C@@H](C)[C@H](O)[C@@H](O)[C@H]5O)[C@@H](O)[C@H](O)[C@H]4O)cc3O2)cc1O", "note": "[Comparative Example 2, hesperidin]", "values": [
      {"measurement": "expression level of the LC3 gene (in words)", "setting": "SH-SY5Y cells with amyloid β, compared to DMSO and amyloid β of Comparative Example 5", "result": "increased"},
      {"measurement": "Relative gene expression level LC3", "setting": "SH-SY5Y cells, 20 μM amyloid β present, 10^−2% (V/V) methyl hesperidin or hesperidin, additional ingredient where in the example, 48 hours, Reference Example 3 = 1.00", "result": 2.41}
    ]}
  ]
}
